Source: patent publication US20230365673A1, “MEANS FOR REDUCING RADIO- AND CHEMOTHERAPY RESISTANCE AND ADVERSE EFFECTS” (JOHANN WOLFGANG GOETHE-UNIVERSITÄT FRANKFURT AM MAIN, priority 2020, published 2023)

Tested on: APTKA orthotopic tumours
Assay: Orthotopic APTKA organoid rectal cancer model with local fractionated radiotherapy (5×2 Gy)
Type: in vivo, C57BL/6 mice
Excerpt: (A and B) Schematic representation of the orthotopic transplantation of APTKA & APTK mouse organoids into C57BL/6 mice followed by local fractionated radiotherapy (5×2 Gy) of established tumours and end point colonoscopy 21 days after the last irradiation. (C) Heat map analysis of RNA sequencing data of APTKA (n=4) and APTK (n=5) orthotopic tumours. (D) GSEA of CAF signature using RNA sequencing data of APTKA and APTK orthotopic tumours. Significant NES≤−1; FDR q-value<0.05. (E) H&E stained sections of APTK and APTKA untreated and irradiated orthotopic tumours 21 days after last irradiation. Scale bars=500 μm. (F and G) Overall tumour (mm3) and invasive area (%) of untreated (n=5) and irradiated (n=6) APTK orthotopic tumours. Data are mean±SD. *** p<0.001 and **** p<0.0001 by t-test. (H and I) Overall tumour (mm3) and invasive area (%) of untreated (n=5) and irradiated (n=5) APTKA orthotopic tumours. ** p<0.01 by t-test. Data are mean±SD. (J) Frequency of mice with liver metastasis in untreated or irradiated APTKA orthotopic tumours (n=5 mice per group). (K) H&E staining of untreated and irradiated APTKA orthotopic tumours. Scale bars=300 μm. Representative images of αSMA (Green), Vimentin (Blue) and Collagen (Yellow) multiplex immunofluorescence of untreated and irradiated APTKA tumours. Scale bars=400 μm. Sirius red staining of APTKA orthotopic tumours upon radiotherapy. Scale bars=300 μm. (L) Percent of αSMA, Vim and Col1 triple positive cells in untreated (n=9) and irradiated (n=10) APTKA tumours. Data are mean±SD. ** p<0.01 by t-test. (M) Sirius red pixel positivity in untreated (n=7) and irradiated (n=6) APTKA tumours. Data are mean±SD. * p<0.05 by t-test. (N-P) Ex vivo irradiation (5×2Gy) of APTKA and APTK organoids: (N) relative fluorescent units of untreated and irradiated organoids, 6 h post last dose, using resazurin cell viability kit (n=4 independent wells per condition); (O) quantification of the number of fully grown untreated and irradiated organoids 4 days' post first reseeding (n=7 to 9 independent wells per condition); (P) subcutaneous tumour growth in C57BL/6 mice transplanted with untreated or irradiated organoids. Data are mean±SD. N=6 mice per group; p<0.05 by one-way ANOVA followed by Tukey's multiple comparisons test. Representative results from one experiment which has been independently repeated least 3 times.
(A) Schematic representation of the orthotopic transplantation of APTKA mouse organoids into C57BL/6 mice followed by 5×2 Gy radiotherapy of established tumours untreated or treated daily with anakinra (500 μg/day) for 21 days. (B and C) Overall tumour size (mm3) and % invasive area of 5×2Gy radiated APTKA orthotopic tumours 21 days after last irradiation without (n=5) or with (n=4) anakinra treatment (500 μg/day). Data are mean±SD; p<0.05 by t-test. (D) Frequency of mice with liver metastasis upon irradiation of APTKA orthotopic tumours without (n=5) or with (n=4) anakinra treatment (500 μg/day). (E and F) Sirius red staining of untreated (n=3) or anakinra treated (n=4) 5×2 Gy irradiated APTKA tumours. Scale bars=200 μm. Data are mean±SD. *** p<0.001 by t-test. (G, H) αSMA immunofluorescent staining and its quantification of irradiated APTKA orthotopic tumours without (n=5) or with (n=4) anakinra treatment (500 μg/day). Scale bars=200 μm. Data are mean±SD; p<0.05 by t-test. (I) Schematic representation of IL-1α overexpression in APTK organoids by CRISPRa/Cas9. (J) ELISA of IL-1α protein levels in conditioned media from APTK sgctrl and APTK sgIL-1α organoids (n=4 independent wells per group). Data are mean±SD. **** p<0.0001 by t-test. (K) Relative RNA expression of inflammatory genes in fibroblasts treated with conditioned media from APTK sgctrl and APTK sgIL-1α organoids for 24 h (n=5 independent wells per condition). Data are mean±SD. **** p<0.0001 by t-test. Representative results from one experiment which has been independently repeated 2 times. […]

[1] = anakinra 500 μg/day plus 5×2 Gy
[2] = anakinra 500 μg/day plus 5×2 Gy, 21 days after last irradiation

With “anakinra: Kineret®, an interleukin-1 receptor antagonist” the APTKA tumour growth (anakinra 500 μg/day alone, no irradiation, data not shown) was “did not affect APTKA tumour growth significantly”, the “metastasis formation (liver)” value [1] was “blocked metastasis formation” and the “number of αSMA+ cells” value [1] was “decreased number of αSMA+cells”. The sirius red staining [1] was “significant decrease in sirius red staining”, the “invasion (% invasive area)” value [2] was “marked reduction in tumour size and invasion” and the tumour size [2] was “marked reduction in tumour size”.
